Measurements: PMC8525588, “Direct targeting of wild-type glucocerebrosidase by antipsychotic quetiapine improves pathogenic phenotypes in Parkinson’s disease models” (JCI Insight, 2021)

Molecular target: T1, β-glucocerebrosidase (GCase) (Homo sapiens, UniProt P04062)
T1 construct: gene GBA1
T1 sequence (P04062 40-536): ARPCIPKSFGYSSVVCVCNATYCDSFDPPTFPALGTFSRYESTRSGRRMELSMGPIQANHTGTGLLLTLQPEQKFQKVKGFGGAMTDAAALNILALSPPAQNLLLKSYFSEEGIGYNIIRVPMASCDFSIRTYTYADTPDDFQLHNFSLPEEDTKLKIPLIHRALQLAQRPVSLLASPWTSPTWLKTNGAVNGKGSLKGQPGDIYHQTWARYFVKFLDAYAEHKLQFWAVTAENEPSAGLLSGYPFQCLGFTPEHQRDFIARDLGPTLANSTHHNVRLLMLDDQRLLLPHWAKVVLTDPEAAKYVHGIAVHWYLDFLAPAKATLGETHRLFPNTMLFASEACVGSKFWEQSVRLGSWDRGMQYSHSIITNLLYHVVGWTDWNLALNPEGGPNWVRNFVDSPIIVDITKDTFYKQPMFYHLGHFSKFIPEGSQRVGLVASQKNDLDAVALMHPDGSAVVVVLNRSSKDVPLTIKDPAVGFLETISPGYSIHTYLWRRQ
Test: biochemical

OCCOCCN1CCN(C2=Nc3ccccc3Sc3ccccc32)CC1 [quetiapine]
Kd: 5 µM
